Patent US10793522B2, “Sulfonamides as inhibitors of the uptake of extracellular citrate” (Boehringer Ingelheim International GmbH, priority 2016, dated 2020)

Assays:
hSLC13A5 [1] = target: T1, hSLC13A5 (Homo sapiens, UniProt Q86YT5); assay: Recombinant hSLC13A5/14C-citrate uptake assay; format: cell-based; conditions: HEK293 Flp-In cells over-expressing hSLC13A5; WGA-PVT SPA beads; 14C-citrate approx. 2 μM; 4 h
Description: (5) Recombinant hSLC13A5/^14C-Citrate Uptake Assay
The human embryonic kidney 293 (HEK 293)-Flp-In cells (293Flp-In-hSLC13A5) over-expressing hSLC13A5 transporter were cloned: The originating plasmid pcDNA3.1-hSLC13A5 containing hSLC13A5 was synthesized at GeneArt. The cDNA for hSLC13A5 was taken from this plasmid by means of PCR amplification using primers with added HindIII (N-terminal) and XhoI (C-terminal) restriction sites and sub-cloned in frame into pcDNA5/FRT from Invitrogen using the respective restriction enzymes. HEK293 Flp-In cells from Invitrogen were stably co-transfected using the pcDNA/FRT-hSLC13A5 plasmid as well as the pOG44 plasmid.
HEK 293-Flp-In cells are used that stably over-express hSLC13A5 transporter which is responsible for the uptake of citrate into these cells.
The uptake of ^14C-citrate into the 293Flp-In-hSLC13A5 cells is monitored using the WGA-PVT SPA (wheat germ agglutinin-polyvinyltoluene scintillation proximity assay) beads that bind to the 293Flp-In cells due to their WGA-PVT surface. This assay format is based on the imported radioactive citrate brought into proximity with the SPA beads by virtue of the biological processes within the cells. The radioactive decay is converted into a light signal that can be measured using e.g. the TopCount plate reader.
(§1) Method: ^14C-Citrate Uptake Assay
Test Compound Dilutions (2Fold-Concentrated):
Starting from 10 mM stock solutions in 100% DMSO, compounds are diluted in pure DMSO using the appropriate dilution steps.
Prior to the uptake assay, 200 μL assay medium (lx HBSS (with Ca^2+ and Mg^2+, w/o Phenolred), contains 5.56 mM D(+)-Glucose)+19.44 mM D(+)-Glucose (final concentration of D(+)-Glucose is 25 mM))+4.8 μL compound solution (or pure DMSO for non-inhibited control wells) are mixed (final DMSO concentration in the assay: 1% (v/v)).
After preparing the 2fold-concentrated test compound dilutions, 50 μL are pipetted to each well of white OptiPlates-96 and incubated at 37° C. in an incubator.
^14C-Citrate Working Solution (Volumes Required Per 96-Well):
The 293Flp-In-hSLC13A5 cells are cultivated in cell culture medium (DMEM+10% fetal calf serum+100 μg/mL Hygromycin B). The medium of the confluent cultures is discarded and the cells are washed with DPBS (w/o Mg^2+ w/o Ca^2+). The cells are detached by the addition of 2.0 mL Accumax per 75 cm^2 culture flask for up to 3 minutes at 37° C. and resuspended in 10 mL assay medium. After cell counting, 50,000 cells/well are administered in a volume of 50 μL into the white OptiPlates-96 containing the respective test compound concentrations. Following a 20 min incubation at 37° C. in the cell culture incubator, 20 μL of ^14C-citrate working solution is added to each well (final volume per well: 120 μL; final ^14C-citrate concentration: approx. 2 μM/well).
After incubation for 4 h at 37° C. in a humid cell culture incubator and the addition of 30 μL of WGA-PVT SPA beads to each well (0.25 mg/well), the plates are sealed on the top using a transparent plastic foil. Incubate the plates for 1 h by room temperature and gentle shaking.
After incubation, the plate is placed into the TopCount NXT HTS and the signal is recorded.
The performance of the test compounds is calculated as follows:
Wells containing cells incubated with 1% DMSO only deliver values for the non-inhibited ^14C-citrate uptake into 293Flp-In-hSLC13A5 cells (100% CTL). Wells containing cells which have received 30 mM non-labelled potassium citrate solution in addition to the ^14C-citrate working solution deliver values for the background (0% CTL).
(§2) The IC50 values of the compounds are calculated in IDBS XLfit by sigmoidal dose-response (variable slope).

hSLC13A5 [2] = target: T1, hSLC13A5; assay: HepG2/14C-citrate uptake assay; format: cell-based; design: HepG2 cells endogenously express hSLC13A5 transporter which is responsible for the uptake of citrate into these cells; endogenous in cells; host or cells: HepG2; conditions: HepG2 cells endogenously expressing hSLC13A5; Cytostar-T; 14C-citrate ~1.8 μM; incubation over night
Description: (4) HepG2/^14C-Citrate Uptake Assay
HepG2 cells endogenously expressing hSLC13A5 were obtained from the Wistar Institute (Knowles et al., Science 1980, 209, 497-499).
HepG2 cells endogenously express hSLC13A5 transporter which is responsible for the uptake of citrate into these cells. […] The uptake of ^14C-citrate into HepG2 cells is monitored using the Cytostar-T assay. This assay format is based on the imported radioactive citrate brought into proximity with the scintillant contained within the base of the plate by virtue of the biological processes within the cells. The radioactive decay is converted to a light signal based on the integration of the scintillation matrix into the assay plate.
as §1
Starting from 10 mM stock solutions in 100% DMSO, compounds are diluted in pure DMSO using the appropriate dilution steps. Prior to the uptake assay, 400 μL assay medium+4.8 μL compound solution (or pure DMSO for non-inhibited control wells) are mixed (final DMSO concentration in the assay: 1% (v/v)) ^14C-citrate working solution (volumes required per 96-well):
The HepG2 cells are cultivated in cell culture medium (EMEM+10% fetal calf serum+1×NEAA and 10 mM L-Glutamin) For the assay, the medium of the confluent cultures is discarded and the cells are washed with DPBS w/o Mg^2+ w/o Ca^2+. The cells are detached by the addition of 1.0 mL 2× Trypsin in DPBS w/o Mg^2+ w/o Ca^2+ with 7.5 mM EDTA per 75 cm^2 culture flask for up to 3 minutes at 37° C. and resuspended in 10 mL cell culture medium. Following cell counting, 100,000 cells/well are seeded in a volume of 200 μL into Cytostar-T Scintillating 96-well microplates. After overnight incubation in a humid cell culture incubator at 37° C., 5% CO2, the cell culture medium is carefully aspirated and the cells are incubated with 200 μL prewarmed (37° C.) assay medium (50% DMEM+50% Ham's F-12+15 mM HEPES (pH 7.4) (medium contains 15.5 m M D(+)-glucose) per well for at least 1 h prior to the experiment.
Immediately prior to uptake assay, the assay medium is carefully removed and 100 μL test compound dilution is added to each well (n=3).
Following a 20 min incubation at 37° C. in the cell culture incubator, 20 μL of ^14C-citrate working solution is added to each well (final volume per well: 120 μL; final ^14C-citrate concentration ˜1.8 μM/well)).
After incubation over night at 37° C. in the cell culture incubator, the plates are sealed on the top using a transparent plastic foil and on the bottom using a white plastic foil. Following the sealing, the plate is placed into the TopCount NXT HTS and the signal is recorded.
as §2

T1 sequence (Q86YT5 whole entry): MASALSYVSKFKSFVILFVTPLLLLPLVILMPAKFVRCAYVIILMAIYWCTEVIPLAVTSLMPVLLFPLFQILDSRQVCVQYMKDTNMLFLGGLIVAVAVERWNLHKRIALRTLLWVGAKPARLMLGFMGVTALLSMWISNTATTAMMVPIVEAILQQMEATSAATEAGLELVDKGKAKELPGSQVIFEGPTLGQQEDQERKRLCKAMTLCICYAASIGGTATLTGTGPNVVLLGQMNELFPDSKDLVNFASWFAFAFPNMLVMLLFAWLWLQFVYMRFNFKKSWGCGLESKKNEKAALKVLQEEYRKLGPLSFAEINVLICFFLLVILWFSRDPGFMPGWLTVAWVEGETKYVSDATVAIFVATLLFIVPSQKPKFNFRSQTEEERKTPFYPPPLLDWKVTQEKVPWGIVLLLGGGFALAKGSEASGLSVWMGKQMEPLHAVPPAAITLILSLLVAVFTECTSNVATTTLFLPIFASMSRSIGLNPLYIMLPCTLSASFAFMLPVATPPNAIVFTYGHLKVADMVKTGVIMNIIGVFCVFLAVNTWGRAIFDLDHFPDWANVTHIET

Row | Structure (SMILES) | IC50 (hSLC13A5 [1]) [µM] | IC50 (hSLC13A5 [2]) [µM]
1 | COc1ccccc1CNC(=O)C1CCN(S(=O)(=O)c2cc(C)cc(C)c2)CC1 [(I-44)] | 0.703 | 0.132
2 | O=C(NCc1ccccn1)C1CCN(S(=O)(=O)c2cc(Br)cc(Br)c2)CC1 [(I-37)] | 0.089 | 0.253
3 | COc1ncccc1CNC(=O)C1CCN(S(=O)(=O)c2cc(Cl)cc(Cl)c2)CC1 [(I-13)] | 0.475 | 0.201
4 | O=C(NCc1ccc(F)cn1)C1CCN(S(=O)(=O)c2cc(Br)cc(Br)c2)CC1 [(I-35)] | 0.054 | 0.147
5 | O=C(NCc1cccnc1)C1CCN(S(=O)(=O)c2cc(Br)cc(Br)c2)CC1 [(I-36)] | 0.354 | 0.448
6 | O=C(NCc1cccc(Cl)n1)C1CCN(S(=O)(=O)c2cc(Cl)cc(Cl)c2)CC1 [(I-26)] | 0.449 | 0.29
7 | O=C(NCc1ccc(F)cc1)C1CCN(S(=O)(=O)c2cc(Br)cc(Br)c2)CC1 [(I-40)] | 0.026 | 0.017
8 | Cc1cc(C)cc(S(=O)(=O)N2CCC(C(=O)NCc3ncc(C)s3)CC2)c1 [(I-46)] | 0.398 | 0.202
9 | CCOc1cc(Cl)cc(S(=O)(=O)N2CCC(C(=O)NCc3ccc(C#N)cc3F)CC2)c1 [(I-50)] | 0.127 | 0.073
10 | Cc1cc(Br)cc(S(=O)(=O)N2CCC(C(=O)NCc3ccc(F)cn3)CC2)c1 [(I-62)] | 0.232 | 0.099
